This note sets out measurements from publication PMC11951252 (RSC Advances, 2025).

Bounds are passed on as bounds.

The test system of one experiment is PC-3. Description: Antiproliferative MTT assay, PC-3. It is filed as cell-based. As to conditions: Homo sapiens, PC-3, read-out: Antiproliferative activity IC50 ± SEM, PC-3.
For the next experiment, the system named is MCF-7. Description: Antiproliferative MTT assay, MCF-7. It is filed as cell-based, human. To be noted: Homo sapiens, MCF7, read-out: Antiproliferative activity IC50 ± SEM, MCF-7. (In general: Tetrazolium assays rely on reduction of a dye to a coloured formazan, in cell work by metabolically active cells.)
A further experiment relates to HCT-116. Description: Antiproliferative MTT assay, HCT-116. It is filed as cell-based. As to conditions: Homo sapiens, HCT-116, read-out: Antiproliferative activity IC50 ± SEM, HCT-116.
Experiment [1] concerns four human cancer cell lines (HCT-116, PC-3, MCF-7, MDAMB-231). Description: Antiproliferative MTT assay, average over four cancer cell lines. To be noted: for GI50: average IC50 of the four cancer cell lines; for fold less potent than compound 4n (GI50): ratio of GI50 values. It is filed as cell-based.

Turning to `COc1ccc(N2CCN(CC(=O)Nc3ccc(C(=O)C=Cc4ccccc4)cc3)CC2)cc1` [4a, N-(4-Cinnamoylphenyl)-2-(4-(4-methoxyphenyl)piperazin-1-yl)acetamide], the figures for the IC50 in the experiment on PC-3, in the experiment on MCF-7 and with HCT-116 were 78.2 ± 4 µM, 72.4 ± 3.7 µM and 68.6 ± 3.7 µM, respectively.

`COc1ccc(N2CCN(CC(=O)Nc3ccc(C(=O)C=Cc4ccc(C)cc4)cc3)CC2)cc1` [4b, 2-(4-(4-Methoxyphenyl)piperazin-1-yl)-N-(4-(3-(p-tolyl)acryloyl)phenyl)acetamide]: the concentration for half-maximal inhibition (IC50) (commonly the concentration at which inhibition is half-maximal) in the experiment on PC-3 stood at 32 ± 2.1 µM; with MCF-7, 65.5 ± 3.5 µM; with HCT-116 it was 79.6 ± 3.8 µM.

Turning to `COc1ccc(C=CC(=O)c2ccc(NC(=O)CN3CCN(c4ccc(OC)cc4)CC3)cc2)cc1` [4c, N-(4-(3-(4-Methoxyphenyl)acryloyl)phenyl)-2-(4-(4-methoxyphenyl)piperazin-1-yl)acetamide], the IC50 is 34.5 ± 2.1 µM in the experiment on PC-3, 28.3 ± 1.8 µM in the experiment with MCF-7 and 18.1 ± 1.4 µM in the experiment with HCT-116.

In the case of `COc1ccc(N2CCN(CC(=O)Nc3ccc(C(=O)C=Cc4cc(OC)c(OC)c(OC)c4)cc3)CC2)cc1` [4d, 2-(4-(4-Methoxyphenyl)piperazin-1-yl)-N-(4-(3-(3,4,5-trimethoxyphenyl)acryloyl)phenyl)acetamide], the IC50 in the experiment on PC-3 is 61.4 ± 3.5 µM; with MCF-7, 24.2 ± 1.7 µM; in the experiment with HCT-116, 29.1 ± 1.9 µM.

Turning to `COc1ccc(N2CCN(CC(=O)Nc3ccc(C(=O)C=Cc4ccc(Br)cc4)cc3)CC2)cc1` [4e, N-(4-(3-(4-Bromophenyl)acryloyl)phenyl)-2-(4-(4-methoxyphenyl)piperazin-1-yl)acetamide], the results for the IC50 with PC-3, in the experiment with MCF-7 and with HCT-116 were 73.9 ± 3.8 µM, 52.5 ± 2.9 µM and 64.8 ± 3.5 µM, respectively.

Take `COc1ccc(N2CCN(CC(=O)Nc3ccc(C(=O)C=Cc4ccc(Cl)cc4Cl)cc3)CC2)cc1` [4f, N-(4-(3-(2,4-Dichlorophenyl)acryloyl)phenyl)-2-(4-(4-methoxyphenyl)piperazin-1-yl)acetamide]: the IC50 in the experiment with PC-3, in the experiment on MCF-7 and with HCT-116 was more than 100 µM each time.

As for `O=C(CN1CCN(c2ccc(Cl)cc2)CC1)Nc1ccc(C(=O)C=Cc2ccccc2)cc1` [4h, 2-(4-(4-Chlorophenyl)piperazin-1-yl)-N-(4-cinnamoylphenyl)acetamide], the IC50 worked out at 20.4 ± 1.5 µM with PC-3, 41.3 ± 2.4 µM in the experiment on MCF-7 and 49.6 ± 2.8 µM in the experiment on HCT-116.

Consider `Cc1ccc(C=CC(=O)c2ccc(NC(=O)CN3CCN(c4ccc(Cl)cc4)CC3)cc2)cc1` [4i, 2-(4-(4-Chlorophenyl)piperazin-1-yl)-N-(4-(3-(p-tolyl)acryloyl)phenyl)acetamide], for which the 50% inhibitory concentration (IC50) in the experiment with PC-3 was more than 100 µM; with MCF-7 it was 91.6 ± 4.6 µM; with HCT-116, 86.1 ± 4.3 µM. For the same molecule, the GI50 (in general, the concentration that inhibits growth by half) in experiment [1] (Homo sapiens) stood at 90 µM. In experiment [1], the “fold less potent than compound 4n (GI50)” value is 13.

Regarding `COc1ccc(C=CC(=O)c2ccc(NC(=O)CN3CCN(c4ccc(Cl)cc4)CC3)cc2)cc1` [4j, 2-(4-(4-Chlorophenyl)piperazin-1-yl)-N-(4-(3-(4-methoxyphenyl)acryloyl)phenyl)acetamide], the IC50 with PC-3 turned out to be 66.8 ± 3.5 µM; in the experiment with MCF-7, 42.9 ± 2.5 µM; with HCT-116 it was 27.4 ± 1.9 µM.

In the case of `COc1cc(C=CC(=O)c2ccc(NC(=O)CN3CCN(c4ccc(Cl)cc4)CC3)cc2)cc(OC)c1OC` [4k, 2-(4-(4-Chlorophenyl)piperazin-1-yl)-N-(4-(3-(3,4,5-trimethoxyphenyl)acryloyl)phenyl)acetamide], the IC50 in the experiment with PC-3 stood at 42.9 ± 2.5 µM; in the experiment on MCF-7 it was 17.9 ± 1.4 µM; with HCT-116, 34.8 ± 2.2 µM.

On to `O=C(CN1CCN(c2ccc(Cl)cc2)CC1)Nc1ccc(C(=O)C=Cc2ccc(Br)cc2)cc1` [4l, N-(4-(3-(4-Bromophenyl)acryloyl)phenyl)-2-(4-(4-chlorophenyl)piperazin-1-yl)acetamide], for which the figures for the IC50 in the experiment with PC-3, with MCF-7 and with HCT-116 were 86.4 ± 4.3 µM, 80.8 ± 3.9 µM and 75.4 ± 4.1 µM, respectively. This molecule gave a GI50 in experiment [1] (Homo sapiens) of 76 µM. Further, the “fold less potent than compound 4n (GI50)” value in experiment [1] is reported as 11.

For `O=C(CN1CCN(c2ccc(Cl)cc2)CC1)Nc1ccc(C(=O)C=Cc2ccc(Cl)cc2Cl)cc1` [4m, 2-(4-(4-Chlorophenyl)piperazin-1-yl)-N-(4-(3-(2,4dichlorophenyl)acryloyl)phenyl)acetamide], the values for the IC50 in the experiment with PC-3, in the experiment with MCF-7 and in the experiment with HCT-116 were 55.2 ± 3.2 µM, 35.8 ± 2.2 µM and 44.8 ± 2.6 µM, respectively.

For the molecule `COc1ccc(N2CCN(CC(=O)Nc3ccc(C4=NN(C(C)=O)C(c5ccccc5)C4)cc3)CC2)cc1` (centres unmarked) [5a, N-(4-(1-Acetyl-5-phenyl-4,5-dihydro-1H-pyrazol-3-yl)phenyl)-2-(4-(4-methoxyphenyl)piperazin-1-yl)acetamide], the IC50 is 46.3 ± 2.5 µM in the experiment on PC-3, 19.6 ± 1.4 µM with MCF-7 and 32.1 ± 2.1 µM in the experiment with HCT-116.

As for `COc1ccc(N2CCN(CC(=O)Nc3ccc(C4=NN(C(C)=O)C(c5ccc(C)cc5)C4)cc3)CC2)cc1` (centres unmarked) [5b, N-(4-(1-Acetyl-5-(p-tolyl)-4,5-dihydro-1H-pyrazol-3-yl)phenyl)-2-(4-(4-methoxy-phenyl)piperazin-1-yl)acetamide], the half-inhibitory concentration (IC50) was 21.9 ± 1.6 µM in the experiment on PC-3, 13.8 ± 1.1 µM with MCF-7 and 24.9 ± 1.8 µM with HCT-116. The GI50 in experiment [1] (Homo sapiens) was determined as 18 µM.

Regarding `COc1ccc(C2CC(c3ccc(NC(=O)CN4CCN(c5ccc(OC)cc5)CC4)cc3)=NN2C(C)=O)cc1` (centres unmarked) [5c, N-(4-(1-Acetyl-5-(4-methoxyphenyl)-4,5-dihydro-1H-pyrazol-3-yl)phenyl)-2-(4-(4-methoxyphenyl)piperazin-1-yl)acetamide], the IC50 was found to be 16.2 ± 1.3 µM in the experiment on PC-3, 9.68 ± 0.8 µM with MCF-7 and 18.6 ± 1.5 µM with HCT-116. This molecule gave a GI50 in experiment [1] (Homo sapiens) of 13 µM.

With `COc1ccc(N2CCN(CC(=O)Nc3ccc(C4=NN(C(C)=O)C(c5ccc(Br)cc5)C4)cc3)CC2)cc1` (centres unmarked) [5e, N-(4-(1-Acetyl-5-(4-bromophenyl)-4,5-dihydro-1H-pyrazol-3-yl)phenyl)-2-(4-(4-methoxyphenyl)piperazin-1-yl)acetamide], the IC50 stood at 29.6 ± 1.9 µM with PC-3, 15.2 ± 1.3 µM with MCF-7 and 26.8 ± 2 µM in the experiment with HCT-116.

In the case of `COc1ccc(N2CCN(CC(=O)Nc3ccc(C4=NN(C(C)=O)C(c5ccc(Cl)cc5Cl)C4)cc3)CC2)cc1` (centres unmarked) [5f, N-(4-(1-Acetyl-5-(2,4-dichlorophenyl)-4,5-dihydro-1H-pyrazol-3-yl)phenyl)-2-(4-(4-methoxyphenyl)piperazin-1-yl)acetamide], the results for the IC50 with PC-3, in the experiment with MCF-7 and with HCT-116 were 57.8 ± 3.3 µM, 47.5 ± 2.6 µM and 54 ± 3.2 µM, respectively.

Regarding `CC(=O)N1N=C(c2ccc(NC(=O)CN3CCN(c4ccc(Cl)cc4)CC3)cc2)CC1c1ccccc1` (centres unmarked) [5h, N-(4-(1-Acetyl-5-phenyl-4,5-dihydro-1H-pyrazol-3-yl)phenyl)-2-(4-(4-chloro-phenyl)piperazin-1-yl)acetamide], the IC50 was found to be 87.6 ± 4.3 µM with PC-3, 85.4 ± 4.6 µM in the experiment on MCF-7 and 74.9 ± 4.1 µM with HCT-116.

With `CC(=O)N1N=C(c2ccc(NC(=O)CN3CCN(c4ccc(Cl)cc4)CC3)cc2)CC1c1ccc(C)cc1` (centres unmarked) [5i, N-(4-(1-Acetyl-5-(p-tolyl)-4,5-dihydro-1H-pyrazol-3-yl)phenyl)-2-(4-(4-chloro-phenyl)piperazin-1-yl)acetamide], the concentration for half-maximal inhibition (IC50) in the experiment with PC-3 amounted to 67.8 ± 3.6 µM; with MCF-7 it was 54.7 ± 3.1 µM; with HCT-116 it was 62.5 ± 3.4 µM.

For the molecule `COc1ccc(C2CC(c3ccc(NC(=O)CN4CCN(c5ccc(Cl)cc5)CC4)cc3)=NN2C(C)=O)cc1` (centres unmarked) [5j, N-(4-(1-Acetyl-5-(4-methoxyphenyl)-4,5-dihydro-1H-pyrazol-3-yl)phenyl)-2-(4-(4-chlorophenyl)piperazin-1-yl)acetamide], the IC50 in the experiment on PC-3 was more than 100 µM; with MCF-7, 94 ± 4.9 µM; in the experiment on HCT-116, more than 100 µM. In experiment [1] (Homo sapiens), the GI50 was found to be 100 µM.

As for `COc1cc(C2CC(c3ccc(NC(=O)CN4CCN(c5ccc(Cl)cc5)CC4)cc3)=NN2C(C)=O)cc(OC)c1OC` (centres unmarked) [5k, N-(4-(1-Acetyl-5-(3,4,5-trimethoxyphenyl)-4,5-dihydro-1H-pyrazol-3-yl)phenyl)-2-(4-(4-chlorophenyl)piperazin-1-yl)acetamide], the values for the IC50 in the experiment on PC-3, in the experiment with MCF-7 and in the experiment on HCT-116 were 45.7 ± 2.6 µM, 40.8 ± 2.4 µM and 52.8 ± 3 µM, respectively.

With `CC(=O)N1N=C(c2ccc(NC(=O)CN3CCN(c4ccc(Cl)cc4)CC3)cc2)CC1c1ccc(Cl)cc1Cl` (centres unmarked) [5m, N-(4-(1-Acetyl-5-(2,4-dichlorophenyl)-4,5-dihydro-1H-pyrazol-3-yl)phenyl)-2-(4-(4-chlorophenyl)piperazin-1-yl)acetamide], the results for the IC50 in the experiment on PC-3, in the experiment on MCF-7 and with HCT-116 were 76.7 ± 3.9 µM, 71.3 ± 3.6 µM and 69.9 ± 3.7 µM, respectively.

`CC(=O)N1N=C(c2ccc(NC(=O)CN3CCN(c4ccc(Cl)cc4)CC3)cc2)CC1c1ccco1` (centres unmarked) [5n, N-(4-(1-Acetyl-5-(furan-2-yl)-4,5-dihydro-1H-pyrazol-3-yl)phenyl)-2-(4-(4-chlorophenyl)piperazin-1-yl)acetamide]: the IC50 in the experiment with PC-3 was 36.8 ± 2.2 µM; in the experiment on MCF-7 it was 23.9 ± 1.7 µM; with HCT-116, 39.6 ± 2.3 µM.

`COc1cccc2c1C(=O)c1c(O)c3c(c(O)c1C2=O)C[C@@](O)(C(=O)CO)C[C@@H]3O[C@H]1C[C@H](N)[C@H](O)[C@H](C)O1` [Doxorubicin, reference compound] showed a GI50 in experiment [1] (Homo sapiens) of 5 µM.

`CNC(=O)c1cc(Oc2ccc(NC(=O)Nc3ccc(Cl)c(C(F)(F)F)c3)cc2)ccn1` [Sorafenib, reference compound]: the IC50 in the experiment on PC-3 stood at 11.5 ± 0.9 µM. Moreover, the results for the concentration for 50% growth inhibition (GI50) in experiment [1] (Homo sapiens) and in experiment [1] were 8 µM and 7 µM, respectively.
